What was measured:
[1] = system: AtT-20 cells; test: Dose response of spontaneous calcium oscillations by confocal Calcium Green imaging of single cells; assay type: cell-based, mouse
Protocol: Sigmoidal dose response curves were fit to each individual cell and the average response over the total population was calculated.
The treated cell samples were imaged using asymmetric imaging methods and a temporal resolution of 3 fps for up to 45 minutes total recording time. In particular, illumination (excitation) was diffraction limited while the detection (emission) was almost wide-field by opening the confocal detection pinhole but leaving the excitation pinhole closed. This allowed for increased detection efficiency, while still suppressing background fluorescence. […]
The Attofluor cell culture chamber was placed inside a PenCon temperature controlled incubator at 37° C. mounted on a DMIRB/E inverted microscope (obtained from Leica Microsystems; Wetzlar, Germany). […] The digital temperature readout of the incubator was checked with a calibrated mercury thermometer to confirm the values within 0.2° C. […]

[2] = system: AtT-20 cells; test: Cell viability control after 45 minutes of imaging and nimodipine: calcium response to high K+ depolarization; assay type: cell-based, mouse; conditions: 45 minutes of imaging and nimodipine treatment up to maximum dose, FIG. 4B
Protocol: Cells were stained with Calcium Green, imaged and exposed to increasing drug doses for 45 minutes. […] First, untreated AtT-20 cells were imaged over a forty-five (45) minute time span with continuous recording at 3 fps. The amplitude of calcium oscillations was measured and plotted over time. […] The averaged oscillation amplitudes of an untreated cell sample over a fifty (50) minute interval for all cells is shown in FIG. 3B. […] As such, experiments were not recorded longer than 45 minutes.

COCCOC(=O)C1=C(C)NC(C)=C(C(=O)OC(C)C)C1c1cccc([N+](=O)[O-])c1 (stereo not drawn) [nimodipine, 1,4-Dihydro-2,6-dimethyl-4-(3-nitrophenyl)-3,5-pyridinedicarboxylic acid 2-methyloxyethyl 1-methylethyl ester]
IC50 ([1]; Mus musculus, AtT20, 5 min, average over all individual cells, FIG. 5B, 5 minute interval per dose, read-out: IC50 of the averaged dose response of calcium oscillation amplitude): 23 nM
Concentration giving complete inhibition of baseline spontaneous calcium oscillations (BSCOs) ([1]; representative cell, FIG. 4C, concentration increased in 10-fold increments): 100 nM
Toxicity of prolonged exposure to cells [2]: non-toxic

From US8709804B2, “Method for drug screening and characterization by calcium flux” (Cedars-Sinai Medical Center, priority 2004, dated 2014)
